Experimental findings from BindingDB's records for doi:10.7270/Q2HX1B3F (The Scripps Research Institute Molecular Screening Center, 2007) are described below.

In the test the target is Collagenase 3 (Homo sapiens, UniProt P45452). Put plainly: inhibition of collagenase 3 (MMP13) activity – biochemical, autofluorescent compounds, fluorescence, dose response (AID 769).
With `O=S(=O)(Nc1ccc(-c2nc3cccnc3s2)cc1)c1cccs1`, the IC50 (as a rule, the point on the concentration scale where inhibition reaches its midpoint) is more than 39.8 µM.
Next, `CCOC(=O)CSc1nc(-c2ccc3c(c2)OCO3)ccc1C#N` [2-[[6-(1,3-benzodioxol-5-yl)-3-cyano-2-pyridinyl]thio]acetic acid ethyl ester]: more than 39.8 µM.
Next, `COc1ccc(-c2ccc(-c3noc(-c4ccccc4C)n3)c(OC)n2)cc1` [3-(2-methoxy-6-(4-methoxyphenyl)pyridin-3-yl)-5-o-tolyl-1,2,4-oxadiazole]: 3.97 µM; `Oc1ccc(/N=C/c2ccc(-c3cccs3)s2)cc1` [4-[(5-thiophen-2-yl-2-thiophenyl)methylideneamino]phenol]: 1.68 µM.
Then `COc1cc(OC)cc(-c2nnc(Nc3nc4c(F)cccc4s3)o2)c1` [5-(3,5-dimethoxyphenyl)-N-(4-fluorobenzo[d]thiazol-2-yl)-1,3,4-oxadiazol-2-amine], with 3.52 µM; and `Fc1cccc2sc(Nc3nnc(-c4ccccc4)o3)nc12` [(4-fluoro-1,3-benzothiazol-2-yl)-(5-phenyl-1,3,4-oxadiazol-2-yl)amine], with more than 39.8 µM; and `COc1cccc(-c2nnc(Nc3nc4c(F)cccc4s3)o2)c1` [(4-fluoro-1,3-benzothiazol-2-yl)-[5-(3-methoxyphenyl)-1,3,4-oxadiazol-2-yl]amine], with more than 39.8 µM.
For the compound `Cc1nn(-c2ccccc2)c2sc(-c3nnc(S)o3)cc12` [MLS000043319], the IC50 is 0.883 µM.
